Assay results: patent publication US20230242473A1, “THYROMIMETICS” (Autobahn Therapeutics, Inc., priority 2020, published 2023)

How the values were obtained:
[1] = biological target: T1, TRα (Homo sapiens, UniProt P10827); assay: Thyroid-hormone reporter-gene assay, TRα (Gal4 hybrid, luciferase); assay type: cell-based; conditions: HEK293-derived reporter cells, 24 hr treatment, luciferase readout
T1 construct: expressed in transfected cells; host or cells: HEK293-derived reporter cell line
T1 sequence (P10827 128-410 isoform P10827-2 limits assumed): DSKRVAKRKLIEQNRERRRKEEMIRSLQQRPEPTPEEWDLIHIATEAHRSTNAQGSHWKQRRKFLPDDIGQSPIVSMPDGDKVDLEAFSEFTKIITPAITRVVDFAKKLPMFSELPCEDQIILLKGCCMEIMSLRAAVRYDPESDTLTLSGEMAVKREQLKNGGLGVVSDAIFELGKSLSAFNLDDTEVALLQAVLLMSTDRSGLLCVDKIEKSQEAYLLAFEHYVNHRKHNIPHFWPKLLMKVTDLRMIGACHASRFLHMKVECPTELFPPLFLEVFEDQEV
Method: (§1) Compounds were tested for thyroid-hormone receptor activity using TR reporter-gene assays. Reporter cells used in the assays express a TR-receptor hybrid (either TRα or TRO) in which the native N-terminal DNA binding domain (DBD) has been replaced with that of the yeast Gal4 DBD. The reporter gene, firefly luciferase, is functionally linked to the Gal4 upstream activation sequence (UAS). Both cell lines were derived from human embryonic kidney (HEK293).
(§2) Step 1: A suspension of reporter cells was prepared in cell recovery medium containing 10% charcoal-stripped FBS, and dispensed into assay plates. The plates were pre-incubated for 6 hours in a cell culture incubator (37° C./5% CO2/85% humidity).
(§3) These intermediate stocks were subsequently diluted directly into compound screening medium containing 10% charcoal-stripped FBS to generate “2×-concentration” treatment media (containing 0.2, 0.4 or 0.8% DMSO).
(§4) Step 3: At the end of the pre-incubation period, culture media were discarded from the assay plates, and all wells received 100 μl of compound screening medium. 100 μl of each of the previously prepared “2×-concentration” treatment media were dispensed into duplicate assay wells, thereby achieving the desired final treatment concentrations. The final concentration of DMSO in all assay wells was 0.1, 0.2 or 0.4%. Assay plates were incubated for 24 hr in a cell culture incubator (37° C./5% CO2/85% humidity).
(§5) Step 4: At the 24 h assay endpoint, treatment media were discarded and 100 µl/well of luciferase detection reagent was added. Relative luminometer units (RLUs) were quantified from each assay well.

[2] = biological target: T2, TRβ (Homo sapiens, UniProt P10828); assay: Thyroid-hormone reporter-gene assay, TRβ (Gal4 hybrid, luciferase); assay type: cell-based; conditions: for EC50: HEK293-derived reporter cells, 24 hr treatment, luciferase readout; for T3-SI, selectivity index (SI) calculated as EC50 (TRα)/EC50 (TRβ): TRα vs TRβ reporter-gene assays
T2 construct: expressed in transfected cells; host or cells: HEK293-derived reporter cell line
T2 sequence (P10828 217-461 limits assumed): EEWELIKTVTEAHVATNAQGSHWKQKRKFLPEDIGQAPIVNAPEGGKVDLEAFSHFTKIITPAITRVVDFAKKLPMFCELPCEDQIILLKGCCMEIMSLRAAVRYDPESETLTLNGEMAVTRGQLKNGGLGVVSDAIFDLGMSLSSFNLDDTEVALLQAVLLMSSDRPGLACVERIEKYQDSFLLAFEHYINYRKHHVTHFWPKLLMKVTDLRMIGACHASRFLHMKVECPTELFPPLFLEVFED
Method: as §1, §2, §3, §4, §5

[3] = biological target: T3, recombinant human FAAH (rhFAAH) (Homo sapiens, UniProt O00519); assay: FAAH substrate evaluation (formation of acid metabolite, LC-MS/MS); assay type: in vitro ADME; conditions: 0.5 ng/μL rhFAAH, 1 μM test compound, pH 8.0, room temperature, 0-60 minutes
T3 construct: purchased Cayman Chemical (Ann Arbor, Mich., USA)
T3 sequence (O00519 1-579): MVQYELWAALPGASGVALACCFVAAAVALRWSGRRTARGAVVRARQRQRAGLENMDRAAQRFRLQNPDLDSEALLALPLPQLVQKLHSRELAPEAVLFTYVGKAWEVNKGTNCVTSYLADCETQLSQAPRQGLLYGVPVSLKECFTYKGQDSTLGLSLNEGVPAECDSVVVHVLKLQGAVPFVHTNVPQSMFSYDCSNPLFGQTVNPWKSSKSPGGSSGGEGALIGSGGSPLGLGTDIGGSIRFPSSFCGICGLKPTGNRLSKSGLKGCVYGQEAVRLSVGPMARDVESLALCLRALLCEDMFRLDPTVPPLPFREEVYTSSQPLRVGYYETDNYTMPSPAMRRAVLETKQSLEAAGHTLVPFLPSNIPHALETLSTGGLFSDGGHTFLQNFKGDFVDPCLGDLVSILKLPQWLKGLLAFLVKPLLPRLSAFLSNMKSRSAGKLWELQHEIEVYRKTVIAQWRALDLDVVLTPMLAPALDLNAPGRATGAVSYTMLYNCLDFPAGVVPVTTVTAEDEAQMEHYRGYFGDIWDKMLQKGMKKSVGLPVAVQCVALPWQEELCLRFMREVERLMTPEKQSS
Method: Purified recombinant human FAAH (rhFAAH) was purchased from Cayman Chemical (Ann Arbor, Mich., USA). The total volume for each incubation was 400 μL containing a final 0.5 ng/μL rhFAAH, 1 μM test compound, 1.25% ethanol or 1 μM PF-3845 (FAAH inhibitor), and 0.1% bovine serum albumin in Tris-EDTA buffer at pH 8.0). The positive control was LL-341001. The incubation was conducted at the room temperature. At 0, 5, 15, 30 and 60 minutes, an aliquot of 30 μL reaction mixtures was removed and mixed with 300 μL acetonitrile containing 5 ng/mL terfenadine and 10 ng/mL tolbutamide as internal standards to quench the reaction. The resulting mixture was centrifuged at 4000 rpm, 4° C. for 15 minutes, and 100 μL supernatant was ready for LC-MS/MS analysis to measure the formation of acid metabolite.
Acquity Ultra Performance LC system from Waters was used for sample analysis. The chromatography was performed on a reverse phase Kinetex 2.6 μm C18 column, 2.1×30 mm, 100 Å. The mobile phase A comprised of 0.10% formic acid in water and mobile phase B comprised of 0.1% formic acid in acetonitrile with a 2-min run time at the flow rate of 0.8 mL/min for the acid metabolite from positive control or a 1.5 min run time at the flow rate of 0.9 mL/min for the acid metabolite of test compounds. The mass spectrometer (API-5500 and API Q Trap 4000 Applied Biosystems/MDS SCIEX Instruments, Framingham, Mass., USA) was operated under ESI positive or negative ion MRM mode.
The formation of acid metabolite was monitored and quantified using one calibration point of 1 μM. The observed rate constant (ke) for the acid metabolite formation was calculated by plotting the metabolite concentration versus time of incubation with the slope being ke and is shown in Table 4.

Row | SMILES | EC50 [1] | EC50 [2] | T3-SI, selectivity index (SI) calculated as EC50 (TRα)/EC50 (TRβ) [2] | ke, observed rate constant for the acid metabolite formation [3]
1 | Cc1cc(OCC(=O)O)c2c(c1Cc1ccc(O)c(C(C)C)c1)CCC2 [Compound 6, 2-((7-(4-hydroxy-3-isopropylbenzyl)-6-methyl-2,3-dihydro-1H-inden-4-yl)oxy)acetic acid] | 100 to 1000 nM | 10 to 100 nM | ++ (++3X<T3−SI≤30X) | 
2 | Cc1cc(OCC(=O)O)c2c(c1Cc1ccc(O)c(C(C)c3ccc(F)cc3)c1)CCC2 (centres unmarked) [Compound 8, 2-((7-(3-(1-(4-fluorophenyl)ethyl)-4-hydroxybenzyl)-6-methyl-2,3-dihydro-1H-inden-4-yl)oxy)acetic acid] | 10 to 100 nM | < 10 nM | ++ (++3X<T3−SI≤30X) | 
3 | CNC(=O)COc1cc(C)c(Cc2ccc(O)c(C(C)C)c2F)c2c1CCC2 [Compound 11, 2-((7-(2-fluoro-4-hydroxy-3-isopropylbenzyl)-6-methyl-2,3-dihydro-1H-inden-4-yl)oxy)-N-methylacetamide] |  |  |  | A (A = ke is less than 2.0 and more than or equal to 0.05)
4 | CC(C)c1cc(Cc2ccc(OCC(=O)O)c3ccccc23)ccc1O [Compound 14, 2-((4-(4-hydroxy-3-isopropylbenzyl)naphthalen-1-yl)oxy)acetic acid] | > 1000 nM | 100 to 1000 nM | ++ (++3X<T3−SI≤30X) | 
5 | CC(C)c1cc(Cc2cc(F)c(OCC(=O)O)c3c2CCC3)ccc1O [Compound 16, 2-((5-fluoro-7-(4-hydroxy-3-isopropylbenzyl)-2,3-dihydro-1H-inden-4-yl)oxy)acetic acid] | > 1000 nM | > 1000 nM | ++ (++3X<T3−SI≤30X) | 
6 | CC(C)c1cc(Cc2cc(F)c(OCC(=O)O)cc2C(F)(F)F)ccc1O [Compound 18, 2-(2-fluoro-4-(4-hydroxy-3-isopropylbenzyl)-5-(trifluoromethyl)phenoxy)acetic acid] | > 1000 nM | > 1000 nM | + (+T3−SI≤3X) | 
7 | CC(C)c1cc(Cc2cc(F)c(OCC(=O)O)cc2C(C)C)ccc1O [Compound 36, 2-(2-fluoro-4-(4-hydroxy-3-isopropylbenzyl)-5-isopropylphenoxy)acetic acid] | 100 to 1000 nM | 100 to 1000 nM | ++ (++3X<T3−SI≤30X) | 
8 | CC(C)c1cc(Cc2cc(F)c(OCC(=O)O)c(F)c2Cl)ccc1O [Compound 38, 2-(3-chloro-2,6-difluoro-4-(4-hydroxy-3-isopropylbenzyl)phenoxy)acetic acid] |  | > 1000 nM |  | 
9 | CNC(=O)COc1cc(Cl)c(Cc2ccc(O)c(C(C)C)c2F)cc1F [Compound 39, 2-(5-chloro-2-fluoro-4-(2-fluoro-4-hydroxy-3-isopropylbenzyl)phenoxy)-N-methylacetamide] |  |  |  | A (A = ke is less than 2.0 and more than or equal to 0.05)
10 | C=C(C)c1cc(OCC(=O)NC)ccc1Cc1ccc(O)c(C(C)C)c1F [Compound 41, 2-(4-(2-fluoro-4-hydroxy-3-isopropylbenzyl)-3-(prop-1-en-2-yl)phenoxy)-N-methylacetamide] |  |  |  | A (A = ke is less than 2.0 and more than or equal to 0.05)

Now from value to compound, other results behind:

Row | EC50 [1] | EC50 [2] | T3-SI, selectivity index (SI) calculated as EC50 (TRα)/EC50 (TRβ) [2] | SMILES | ke, observed rate constant for the acid metabolite formation [3]
11 | > 1000 nM | 100 to 1000 nM | ++ (++3X<T3−SI≤30X) | CC(C)c1c(O)ccc(Cc2ccc(OCC(=O)O)c3c2CCC3)c1F [Compound 2, 2-((7-(2-fluoro-4-hydroxy-3-isopropylbenzyl)-2,3-dihydro-1H-inden-4-yl)oxy)acetic acid] | 
12 | > 1000 nM | > 1000 nM |  | CC(C)c1c(O)ccc(Cc2ccc(OCC(=O)O)c3c2C(C)CC3)c1F (centres unmarked) [Compound 4, 2-((7-(2-fluoro-4-hydroxy-3-isopropylbenzyl)-1-methyl-2,3-dihydro-1H-inden-4-yl)oxy)acetic acid] | 
13 | 10 to 100 nM | < 10 nM | ++ (++3X<T3−SI≤30X) | Cc1cc(OCC(=O)O)c2c(c1Cc1ccc(O)c(C(C)C)c1F)CCC2 [Compound 10, 2-((7-(2-fluoro-4-hydroxy-3-isopropylbenzyl)-6-methyl-2,3-dihydro-1H-inden-4-yl)oxy)acetic acid] | 
14 | > 1000 nM | 100 to 1000 nM | ++ (++3X<T3−SI≤30X) | CC(C)c1c(O)ccc(Cc2ccc(OCC(=O)O)cc2Cl)c1F [Compound 20, 2-(3-chloro-4-(2-fluoro-4-hydroxy-3-isopropylbenzyl)phenoxy)acetic acid] | 
15 | > 1000 nM | 100 to 1000 nM | ++ (++3X<T3−SI≤30X) | C=C(C)c1cc(OCC(=O)O)ccc1Cc1ccc(O)c(C(C)C)c1F [Compound 23, 2-(4-(2-fluoro-4-hydroxy-3-isopropylbenzyl)-3-(prop-1-en-2-yl)phenoxy)acetic acid] | 
16 | 100 to 1000 nM | 10 to 100 nM | ++ (++3X<T3−SI≤30X) | CC(C)c1cc(OCC(=O)O)ccc1Cc1ccc(O)c(C(C)C)c1F [Compound 25, 2-(4-(2-fluoro-4-hydroxy-3-isopropylbenzyl)-3-isopropylphenoxy)acetic acid] | 
17 | > 1000 nM | > 1000 nM |  | CC(C)c1c(O)ccc(Cc2ccc(OCC(=O)O)c(F)c2Cl)c1F [Compound 27, 2-(3-chloro-2-fluoro-4-(2-fluoro-4-hydroxy-3-isopropylbenzyl)phenoxy)acetic acid] | 
18 | > 1000 nM | 100 to 1000 nM | +++ (+++T3−SI>30X) | CC(C)c1c(O)ccc(Cc2cc(F)c(OCC(=O)O)cc2Cl)c1F [Compound 29, 2-(5-chloro-2-fluoro-4-(2-fluoro-4-hydroxy-3-isopropylbenzyl)phenoxy)acetic acid] | 
19 | > 1000 nM | > 1000 nM | ++ (++3X<T3−SI≤30X) | CC(C)c1c(O)ccc(Cc2ccc(OCC(=O)O)c(F)c2C(C)C)c1F [Compound 31, 2-(2-fluoro-4-(2-fluoro-4-hydroxy-3-isopropylbenzyl)-3-isopropylphenoxy)acetic acid] | 
